What was measured:
[1] = xn = mol fraction of the nth substance listed

CCCCCC [hexane] + CCCCO
surface tension liquid-gas [mN/m], [1]
Conditions | 283.15 K | 288.15 K | 293.15 K | 298.15 K | 303.15 K | 308.15 K | 313.15 K
x2 = 0.0519 | 19.78 | 19.15 | 18.6 | 18.11 | 17.55 | 16.75 | 16.4
x2 = 0.0875 | 19.87 | 19.26 | 18.7 | 18.2 | 17.61 | 16.8 | 16.43
x2 = 0.1959 | 20.17 | 19.58 | 19.03 | 18.52 | 17.92 | 17.13 | 16.74
x2 = 0.2999 | 20.41 | 19.88 | 19.35 | 18.84 | 18.28 | 17.52 | 17.12
x2 = 0.399 | 20.69 | 20.14 | 19.65 | 19.1 | 18.62 | 17.91 | 17.48
x2 = 0.4914 | 20.93 | 20.4 | 19.96 | 19.43 | 18.92 | 18.29 | 17.83
x2 = 0.5974 | 21.44 | 20.9 | 20.44 | 19.91 | 19.43 | 18.82 | 18.39
x2 = 0.7044 | 22.14 | 21.63 | 21.18 | 20.6 | 20.17 | 19.59 | 19.12
x2 = 0.8027 | 23.09 | 22.54 | 22.13 | 21.54 | 21.13 | 20.6 | 20.15
x2 = 0.9088 | 24.37 | 23.85 | 23.44 | 22.87 | 22.51 | 22.06 | 21.6
x2 = 0.953 | 24.93 | 24.47 | 24.07 | 23.53 | 23.18 | 22.76 | 22.37

CCC(C)O (stereo unspecified) [butan-2-ol] + CCCCCC
surface tension liquid-gas [mN/m], [1]
Conditions | 283.15 K | 288.15 K | 293.15 K | 298.15 K | 303.15 K | 308.15 K | 313.15 K
x1 = 0.0493 | 19.75 | 19.16 | 18.62 | 18.11 | 17.52 | 16.69 | 16.33
x1 = 0.1057 | 19.84 | 19.24 | 18.7 | 18.14 | 17.53 | 16.66 | 16.26
x1 = 0.2083 | 20 | 19.36 | 18.8 | 18.21 | 17.62 | 16.81 | 16.41
x1 = 0.3004 | 20.18 | 19.52 | 18.95 | 18.37 | 17.82 | 17.08 | 16.7
x1 = 0.4002 | 20.43 | 19.77 | 19.21 | 18.67 | 18.16 | 17.5 | 17.13
x1 = 0.4962 | 20.72 | 20.13 | 19.6 | 19.09 | 18.6 | 18.01 | 17.62
x1 = 0.5948 | 21.1 | 20.57 | 20.13 | 19.61 | 19.18 | 18.6 | 18.22
x1 = 0.6968 | 21.64 | 21.2 | 20.76 | 20.26 | 19.84 | 19.33 | 18.92
x1 = 0.8018 | 22.35 | 21.9 | 21.52 | 21.04 | 20.67 | 20.18 | 19.74
x1 = 0.8964 | 23.18 | 22.74 | 22.34 | 21.88 | 21.52 | 21.12 | 20.73
x1 = 0.9492 | 23.73 | 23.31 | 22.9 | 22.43 | 22.11 | 21.73 | 21.33

CCCCO [butan-1-ol]
Conditions | surface tension liquid-gas [mN/m]
283.15 K | 25.55
288.15 K | 25.12
293.15 K | 24.78
298.15 K | 24.25
303.15 K | 23.95
308.15 K | 23.55
313.15 K | 23.15

Source: the NIST ThermoML archive (doi:10.1021/je700215z)
